Consider 87 compounds from a melting point compilation (Tetko et al.; mined from patent text by program, amines drawn as free bases though some values may be those of a salt).

Each structure is given as a SMILES string.

For orientation: melting point means the temperature of the solid-liquid transition. `CCc1cc(C(C)=O)c(O)c(C(=O)Nc2nnn[nH]2)c1` showed a melting point of 257 to 258 °C.

In the case of `CC(C=CC=C(C)C=CC1=C(C)C(=O)CCC1(C)C)=CC=CC=C(C)C=CC=C(C)C=CC1=C(C)C(=O)CCC1(C)C`, the melting point lay within 205 to 207 °C. As for `COCCC1CCCCCc2c1oc(=O)c(C(c1ccccc1)C1CC1)c2O` (configuration not stated), the figure is 78 to 80 °C; as for `CN(C)c1ccccc1CS(=O)c1nc2c(n1-c1ccccn1)CCC2` (configuration not stated), 140 to 141 °C. With `Cc1ccc(COc2ccc(C(=O)NC[C@@H](C(=O)NO)N3CCCCC3)cc2)c2ccccc12`, the melting point was 123 °C. In turn, `COc1cccc(NC(=O)NCc2cccc3c2C(=O)N(C2CCC(=O)NC2=O)C3=O)c1` (configuration not stated) registered a melting point of 160 to 162 °C. As for `CC(C)n1nc(-c2sc(NC(=O)c3ccccc3F)nc2-c2ccccc2)ccc1=O`, the figure is 251 to 252 °C. For the compound `COc1ccc2c(c1OC)CC(c1ccccc1)CC2(O)CN` (configuration not stated), the melting point was 175 to 176 °C. Under `CNc1c(N)cnn1CCO` stands 138 to 140 °C; under `CCCn1c(=O)n2c(=O)n(COCc3ccccc3)nc2c2c1ncn2COCc1ccccc1`, 88.9 to 90.3 °C. The compound `Cn1c(=O)c(-c2ccc(Cl)cc2Cl)cc2c3cc(-c4coc(N)n4)ccc3n(C)c21` displayed a melting point of 295 to 297 °C. `CC1CC(=O)NN=C1c1ccc(NC2=NCCN2)c(Br)c1` (configuration not stated) came in with a melting point of 265 to 267 °C. As for `COc1ccc(Nc2ccc(OCc3ccccc3)cc2)cc1`, the figure is 108 °C. Compound `CC(C)(C)OC(=O)COc1ccc(C(=O)CN2CCN(c3ccncc3)CC2)cc1` displayed a melting point of 103 to 104 °C. Compound `COC(=O)CCCC#Cc1cc(Cl)ccc1NS(=O)(=O)c1cccc(OC)c1` returned a melting point of 71 to 76 °C. `C=C(C)C(=O)N1c2ccccc2Sc2ccc(OC)cc21`: the melting point is 91 to 92 °C.

For the compound `Cc1ccccc1CN1CCC(n2c(C)c(-c3ccccc3)[nH]c2=O)CC1`, the melting point lay within 218 to 220 °C.

As for `COC(=O)c1c(N)cccc1S(=O)(=O)NC(C)(C)C`, the melting point fell in the range of 132 to 133 °C.

`CCCC(NS(=O)(=O)c1ccc(C)cc1)P(=O)(Oc1ccccc1)Oc1ccccc1` (configuration not stated) gave a melting point of 178 to 180 °C. `COc1cc(C2c3cc4c(cc3C(NC3=CC(=O)N(Cc5ccc(C(F)(F)F)cc5)C3=O)C3COC(=O)C23)OCO4)cc(OC)c1O` (configuration not stated): the melting point fell in the range of 184 to 186 °C. The compound `COc1cc(SC2SCC(O)C(O)C2O)cc(OC)c1OC` (configuration not stated) gave a melting point of 166 °C. The compound `Cc1cc(C2C(=O)Oc3c2cc(C(C)(C)C)cc3C(C)(C)C)cc(C)c1OC(=O)C(C)(C)C` (configuration not stated) had a melting point of 140 to 142 °C. As for `CNC(=O)c1cc(F)cc(Cl)c1Oc1cccc(OC)c1C`, the figure is 127 to 128 °C; as for `Nc1nc(Cn2ncc3cc(C(=O)NC[C@H](NS(=O)(=O)c4cccc5ccccc45)C(=O)O)ccc32)cc(=O)[nH]1`, 94 to 95 °C; as for `CCOC(=O)c1nn(-c2ccc(C)cc2)cc1-c1ccccc1`, 115 to 117 °C.

On to `CC(C)(C)Oc1ccc(C(=O)N[C@H]2CC[C@H](CCN3CCN(c4nccc5c4CCO5)CC3)CC2)cc1`, for which the melting point was 200 °C. Turning to `COc1cc(C(C)C)ccc1C1(O)C(=O)c2cccc(N)c2C1=O` (configuration not stated), the melting point fell in the range of 219 to 220 °C.

For the compound `O=C/C=C/c1cc2ccccc2[nH]1`, the melting point was 203 to 204 °C. The compound `CCCCCCCCCCCCCCCCCCOc1cc(OCCCCc2ccc3cc(O)c(O)cc3c2)cc(N(CC(=O)O)CC(=O)O)c1` yielded a melting point of 153 to 155 °C. Under `CCOC(=O)COC(=O)Cc1ccc2cc(OC)ccc2c1` stands 38 to 40 °C; under `Cc1cc(N)c([N+](=O)[O-])c(C)c1N`, 124 °C. The compound `O=[N+]([O-])c1ccc2nc(CCCCCCCCc3nc4ccc([N+](=O)[O-])cc4[nH]3)[nH]c2c1` had a melting point of 135 to 137 °C. In turn, `O=C(NCCBr)C1=C(C(=O)Nc2ccc(Cl)cc2F)CCCC1` returned a melting point of 165 to 166 °C.

Turning to `O=S1(=O)c2ccccc2C(c2ccccc2)N1CCCN1CCN(c2ccc(F)cc2)CC1` (racemic), the melting point is 182 °C. Turning to `CC(=O)c1ccc(OC2SCC(O)C(O)C2O)cn1` (configuration not stated), the melting point lay within 178 to 179 °C. Under `O=C1C=CC(=O)C(CC(Cl)(Cl)Cl)=C1` stands 115 °C; under `CN(C)C(=O)c1ccc2c(c1)CC(=O)N2`, 147 to 148 °C. As for `CCCCCCC(C)(C)c1ccc(C2CCCC(=O)C2)c(O)c1` (configuration not stated), the figure is 87 °C; as for `COCCC(=O)N[C@H]1CC[C@H](CCN2CCC(c3cccc4c3CCO4)CC2)CC1`, 182 °C; as for `COc1ccc(C2OCC(C)(C)C(C(=O)NCCC(=O)O)O2)cc1` (configuration not stated), 135 to 136 °C.

Regarding `CC(CNCC(O)c1ccccc1)OCc1ccccc1` (configuration not stated), the melting point lay within 90 to 100 °C.

For the compound `O=C(O)c1cc(S(=O)(=O)N2CCCC(OCc3ccccc3)C2)ccc1Cl` (configuration not stated), the melting point fell in the range of 173 to 174 °C. Compound `CC1(C)CCC(C)(C)c2cc(C(=O)COc3ccc(C(=O)O)cc3)ccc21` had a melting point of 168 to 170 °C. The compound `CC(C)NC(=O)c1cc(-n2c(=O)cc(C(F)(F)F)n(C)c2=O)c(F)cc1Cl` registered a melting point of 146 to 149 °C. As for `CCCCCC(C#CC1C(O)CC(=O)C1CCCCCCC(=O)OC)OC1CCCCO1` (mixture of isomers), the melting point is 84 to 85 °C. As to `CC1(CO)C(O)CCC2(C)C1CCC1CC3CC12CCC3(O)CO` (configuration not stated), the melting point lay within 290 to 300 °C.

The compound `OCc1cc2c(Oc3ccc(Cl)cc3)cncc2s1` came in with a melting point of 90 to 91 °C. Compound `CC(C)(c1ccc(Oc2ccc([N+](=O)[O-])cc2F)cc1)c1cccc(C(C)(C)c2ccc(Oc3ccc([N+](=O)[O-])cc3F)cc2)c1` displayed a melting point of 151 to 152 °C. In the case of `CC1(C)COc2ccc(C(=O)O)cc21`, the melting point is 171 to 173 °C. Take `NC(=O)N1CCC(c2nn(-c3ccc(F)cc3)c3ccccc23)CC1`: the melting point was 145 to 147 °C. As for `Cc1cn(C)cc1-c1cc2nccnc2[nH]1`, the melting point was found to be 210 °C.

In the case of `CN(CC(F)(F)F)C(=O)COc1nc2ccccc2o1`, the melting point is 92 °C. Under `CNc1ccc([N+](=O)[O-])cc1C(F)(F)F` stands 99 to 101 °C. `O=[N+]([O-])c1cnc2ccc(-c3ccccc3)cc2c1Cl` registered a melting point of 144 to 145 °C. In turn, `COc1cc(C(=O)O)cc(CCc2ccccc2)c1C(=O)O` displayed a melting point of 242 to 244 °C. `CCOC(=O)c1ccoc1Cn1c(NC2CCN(C(=O)OCC)CC2)nc2ccccc21`: the melting point was found to be 162 °C. `O=C(N[C@H]1CC[C@H](CCN2CCN(c3nccc4c3CCO4)CC2)CC1)C1CCC1`: the melting point was found to be 202 °C.

In the case of `COC(=O)C(=O)CC(C)C1CCC2C3CC=C4CC(OC(C)=O)CCC4(C)C3CCC12C` (configuration not stated), the melting point lay in the range of 146 to 147 °C. `Cc1ncn(C(=O)Nc2ccccc2)c1Cl` showed a melting point of 112 to 114 °C. With `O=C(Nc1ccc(OC(F)(F)F)cc1)N1CC(c2sncc2C(F)(F)F)C(c2ccc(Cl)cc2)=N1` (configuration not stated), the melting point was in the range of 101 to 104 °C. As for `CCc1cccc2c3c([nH]c12)C(CC)(CC(=O)OC)OCC3` (configuration not stated), the melting point lay within 128 to 130 °C. Turning to `O=C(O)[C@@H]1CCC(=O)N1Cc1ccccc1`, the melting point fell in the range of 91 to 93 °C. Under `CN(CCN(CCC12CC3CC(CC(C3)C1)C2)C(=O)NCCCc1ccncc1)S(C)(=O)=O` stands 165 to 167 °C; under `CS(=O)(=O)Nc1ccc([C@@H]2CCC(=O)O2)cc1`, 101 to 102 °C.

Compound `Clc1ccc(Oc2cncc3sc(-c4ccco4)cc23)cc1` gave a melting point of 75 to 77 °C.

As to `Nc1nc(-c2ccccc2)c(F)c(=O)[nH]1`, the melting point lay in the range of 276 to 278 °C. `CC(C(O)c1ccc2c(c1)CCCS2)N1CCC(NC(=O)c2ccccc2)CC1` (configuration not stated) registered a melting point of 200 to 201 °C. The compound `C#CCOc1ccc2c(c1)c(-c1ccc(C(C)C)cc1)nc(=O)n2Cc1cccc(NC(=O)CCl)c1` came in with a melting point of 170 to 172 °C.

As to `CCOc1ccc2c(c1)n(C1CCCCC1)c(=O)n2Cc1ccc(NC(=O)N(C)C)cc1OC`, the melting point was 250 °C. The compound `BrC=C(c1ccccc1)c1ccccc1` registered a melting point of 45 °C. On to `CC(S)=C(C#N)C(=O)Nc1ccc(C(F)(F)F)cc1`, for which the melting point was in the range of 183 to 184 °C. `N#Cc1ccc(OCCCOc2cccc(-c3cc4cc(C#N)ccc4o3)c2)cc1` yielded a melting point of 157 to 158 °C. `C=CCN1C2CCC3C1CCC2N3C(c1ccc(C(=O)N2CCCCC2)cc1)c1cccc(O)c1` (configuration not stated) showed a melting point of 70 to 73 °C. For the compound `CC1CCC2(OC1)OC1CC3C4CC(=O)C5CCCCC5(C)C4CCC3(C)C1C2C` (configuration not stated), the melting point was in the range of 210 to 212 °C.

`CC(=O)NCc1ccc(CN2CCN(c3ccccc3)CC2)cc1[N+](=O)[O-]` gave a melting point of 135 to 136 °C. The compound `CCN(CC)C1CCCCN(CC(=O)N2c3ccccc3C(=O)Nc3cccnc32)C1` (configuration not stated) returned a melting point of 222 to 224 °C. Compound `COC(=O)CCc1nc(C=O)ccc1OCCCC/C=C/c1ccc(OC)cc1` yielded a melting point of 66 to 69 °C. `COc1ccc(Oc2ccc3ccc(NC(=O)c4ccc(OC)cc4)nc3n2)cc1` had a melting point of 163 °C. As for `CC(C)(C)c1csc(-c2cc3cc(OCc4cccc(C#N)c4)ccc3o2)n1`, the figure is 104 to 106 °C; as for `c1ccc2c(c1)[nH]c1c2nc2ncccn21`, 96 to 98 °C; as for `COc1cc(SC(F)F)nc(N)n1`, 83 to 84 °C. In the case of `CCOC(=O)CCCCCCCCCCCNC(=O)c1cc(OCc2ccccc2)ccc1OCc1ccccc1`, the melting point fell in the range of 70 to 71 °C. As for `Cc1ncoc1C(=O)Nc1ccc(-n2nc(C(F)(F)F)cc2C2CC2)c(F)c1`, the melting point lay in the range of 148 to 150 °C. As for `CNC(=O)c1[nH]c(=O)[nH]c1C`, the figure is greater than 300 °C. Regarding `Cc1cc(-c2nc3cccnn3c2-c2ccnc(NC(=O)c3ccccc3)c2)ccc1F`, the melting point lay in the range of 189 to 190 °C. Take `O=C(NC(=S)Nc1ccccc1-c1ccc(F)cc1)c1ccccc1`: the melting point fell in the range of 123 to 124 °C. As for `COCC(=O)Nc1cc2c(cc1C#N)C(Nc1ccc(C(=O)OC(C)(C)C)cc1)CC2` (configuration not stated), the melting point is 163 to 164 °C.
